{"source": "patent US8957108B2", "about": "“Use of 5,6-dimethylxanthenone-4-acetic acid as an antiviral agent” (University of Maryland, Baltimore, priority 2006, dated 2015)", "key": {"IFN-β−/− macrophages": {"system": "IFN-β−/− macrophages", "settings": "IFN-β-deficient cells, DMXAA 3 h vs unstimulated wild-type cells"}, "MEFs": {"system": "MEFs", "test": "RANTES protein in MEF supernatants", "assay_type": "cell-based, mouse", "settings": "24 h", "procedure": "IFN-β protein in cell culture supernatants was measured using a custom ELISA originally described in Weinstein, S. L. et al. (2000) “Phosphatidylinositol 3-Kinase And mTOR Mediate Lipopolysaccharide-Stimulated Nitric Oxide Production In Macrophages Via Interferon-Beta,” J. Leukocyte Biol. 67:405-414, with few modifications. […] Plates were blocked with 10% FCS in 1×PBS for 2 h at room temperature. Samples and a murine IFN-β standard (NIH, Bethesda, Md.) were added to wells and incubated overnight at 4° C. […] Wells were washed 3× followed by incubation with a 1:2000 dilution of goat anti-rabbit HRP (Cell Signaling Technologies, Beverly, Mass.) in 10% FCS-PBS for 1 h at room temperature. Plates were washed 3× and developed with TMB substrate (KPL, Gaithersburg, Md.). The reaction was stopped by addition of 1N H2SO4, and plates were read at 450 nm. RANTES and TNF-α were quantified using Luminex bead-based colorimetric assays. […] For stimulation of cells, poly(I:C) was mixed with Fugene 6 transfection reagent (Roche) at a ratio of 1:1 (volume:weight) in OptiMEM medium and incubated for 15 min prior to stimulation. Culture supernatants of cells (2×10^4) seeded on 96-well plates were collected after 24 h stimulation and analyzed for RANTES levels with ELISA. ELISA was performed according to the manufacturer's instructions (R&D Systems)."}, "peritoneal macrophages": {"system": "peritoneal macrophages", "test": "Cytokine analysis of macrophage culture supernatants", "assay_type": "cell-based, mouse", "settings": "supernatants at 24 h"}}, "data": [{"compound": "Cc1ccc2c(=O)c3cccc(CC(=O)O)c3oc2c1C", "note": "[DMXAA, 5,6-dimethylxanthenone-4-acetic acid]", "values": [{"measurement": "IFNA6 Fold Change: IFNβ−/−", "setting": "IFN-β−/− macrophages", "result": 9.1, "unit": "fold"}, {"measurement": "IFNB1 Fold Change: IFNβ−/−", "setting": "IFN-β−/− macrophages", "result": 1.1, "unit": "fold"}, {"measurement": "IFNG Fold Change: IFNβ−/−", "setting": "IFN-β−/− macrophages", "result": 59.4, "unit": "fold"}, {"measurement": "IGTP Fold Change: IFNβ−/−", "setting": "IFN-β−/− macrophages", "result": 1.2, "unit": "fold"}, {"measurement": "IIGP1 Fold Change: IFNβ−/−", "setting": "IFN-β−/− macrophages", "result": 1.2, "unit": "fold"}, {"measurement": "IL6 Fold Change: IFNβ−/−", "setting": "IFN-β−/− macrophages", "result": 13.5, "unit": "fold"}, {"measurement": "IL12B Fold Change: IFNβ−/−", "setting": "IFN-β−/− macrophages", "result": 1.4, "unit": "fold"}, {"measurement": "IL15 Fold Change: IFNβ−/−", "setting": "IFN-β−/− macrophages", "result": 1.7, "unit": "fold"}, {"measurement": "IL15RA Fold Change: IFNβ−/−", "setting": "IFN-β−/− macrophages", "result": 3.3, "unit": "fold"}, {"measurement": "IRF1 Fold Change: IFNβ−/−", "setting": "IFN-β−/− macrophages", "result": 1.2, "unit": "fold"}, {"measurement": "IRF2 Fold Change: IFNβ−/−", "setting": "IFN-β−/− macrophages", "result": 1.2, "unit": "fold"}, {"measurement": "IRGM Fold Change: IFNβ−/−", "setting": "IFN-β−/− macrophages", "result": 2.3, "unit": "fold"}, {"measurement": "ISG20 Fold Change: IFNβ−/−", "setting": "IFN-β−/− macrophages", "result": 3.4, "unit": "fold"}, {"measurement": "KATNA1 Fold Change: IFNβ−/−", "setting": "IFN-β−/− macrophages", "result": 1.5, "unit": "fold"}, {"measurement": "LGP2 Fold Change: IFNβ−/−", "setting": "IFN-β−/− macrophages", "result": 2.7, "unit": "fold"}, {"measurement": "LHX2 Fold Change: IFNβ−/−", "setting": "IFN-β−/− macrophages", "result": 7.8, "unit": "fold"}, {"measurement": "LOC129607 Fold Change: IFNβ−/−", "setting": "IFN-β−/− macrophages", "result": 7.8, "unit": "fold"}, {"measurement": "MAFK Fold Change: IFNβ−/−", "setting": "IFN-β−/− macrophages", "result": 1.6, "unit": "fold"}, {"measurement": "MARCH5 Fold Change: IFNβ−/−", "setting": "IFN-β−/− macrophages", "result": 1.9, "unit": "fold"}, {"measurement": "MOV10 Fold Change: IFNβ−/−", "setting": "IFN-β−/− macrophages", "result": 1.2, "unit": "fold"}, {"measurement": "MX1 Fold Change: IFNβ−/−", "setting": "IFN-β−/− macrophages", "result": 9.3, "unit": "fold"}, {"measurement": "MX2 Fold Change: IFNβ−/−", "setting": "IFN-β−/− macrophages", "result": 1.1, "unit": "fold"}, {"measurement": "NMI Fold Change: IFNβ−/−", "setting": "IFN-β−/− macrophages", "result": 1.6, "unit": "fold"}, {"measurement": "NP Fold Change: IFNβ−/−", "setting": "IFN-β−/− macrophages", "result": 1.7, "unit": "fold"}, {"measurement": "NT5C3 Fold Change: IFNβ−/−", "setting": "IFN-β−/− macrophages", "result": 1.8, "unit": "fold"}, {"measurement": "OAS1B Fold Change: IFNβ−/−", "setting": "IFN-β−/− macrophages", "result": 2.1, "unit": "fold"}, {"measurement": "OASL Fold Change: IFNβ−/−", "setting": "IFN-β−/− macrophages", "result": 19.7, "unit": "fold"}, {"measurement": "P4HA1 Fold Change: IFNβ−/−", "setting": "IFN-β−/− macrophages", "result": 3.4, "unit": "fold"}, {"measurement": "P8 Fold Change: IFNβ−/−", "setting": "IFN-β−/− macrophages", "result": 1.3, "unit": "fold"}, {"measurement": "PARP9 Fold Change: IFNβ−/−", "setting": "IFN-β−/− macrophages", "result": 1.4, "unit": "fold"}, {"measurement": "PELI1 Fold Change: IFNβ−/−", "setting": "IFN-β−/− macrophages", "result": 4.3, "unit": "fold"}, {"measurement": "PGF Fold Change: IFNβ−/−", "setting": "IFN-β−/− macrophages", "result": 20.2, "unit": "fold"}, {"measurement": "PLAU Fold Change: IFNβ−/−", "setting": "IFN-β−/− macrophages", "result": 2.3, "unit": "fold"}, {"measurement": "PPP1R15A Fold Change: IFNβ−/−", "setting": "IFN-β−/− macrophages", "result": 1.6, "unit": "fold"}, {"measurement": "PTX3 Fold Change: IFNβ−/−", "setting": "IFN-β−/− macrophages", "result": 1.3, "unit": "fold"}, {"measurement": "PVRL2 Fold Change: IFNβ−/−", "setting": "IFN-β−/− macrophages", "result": 3.1, "unit": "fold"}, {"measurement": "PVRL4 Fold Change: IFNβ−/−", "setting": "IFN-β−/− macrophages", "result": 4.3, "unit": "fold"}, {"measurement": "REL Fold Change: IFNβ−/−", "setting": "IFN-β−/− macrophages", "result": 1.1, "unit": "fold"}, {"measurement": "RGC32 Fold Change: IFNβ−/−", "setting": "IFN-β−/− macrophages", "result": 3.0, "unit": "fold"}, {"measurement": "RIPK2 Fold Change: IFNβ−/−", "setting": "IFN-β−/− macrophages", "result": 1.3, "unit": "fold"}, {"measurement": "RSAD2 Fold Change: IFNβ−/−", "setting": "IFN-β−/− macrophages", "result": 7.8, "unit": "fold"}, {"measurement": "SAP30 Fold Change: IFNβ−/−", "setting": "IFN-β−/− macrophages", "result": 1.6, "unit": "fold"}, {"measurement": "SAV1 Fold Change: IFNβ−/−", "setting": "IFN-β−/− macrophages", "result": 2.6, "unit": "fold"}, {"measurement": "SDC4 Fold Change: IFNβ−/−", "setting": "IFN-β−/− macrophages", "result": 3.3, "unit": "fold"}, {"measurement": "SECTM1 Fold Change: IFNβ−/−", "setting": "IFN-β−/− macrophages", "result": 1.2, "unit": "fold"}, {"measurement": "SLC7A2 Fold Change: IFNβ−/−", "setting": "IFN-β−/− macrophages", "result": 1.8, "unit": "fold"}, {"measurement": "SOAT1 Fold Change: IFNβ−/−", "setting": "IFN-β−/− macrophages", "result": 1.9, "unit": "fold"}, {"measurement": "SOCS1 Fold Change: IFNβ−/−", "setting": "IFN-β−/− macrophages", "result": 3.4, "unit": "fold"}, {"measurement": "STAT2 Fold Change: IFNβ−/−", "setting": "IFN-β−/− macrophages", "result": 1.7, "unit": "fold"}, {"measurement": "TGTP Fold Change: IFNβ−/−", "setting": "IFN-β−/− macrophages", "result": 1.6, "unit": "fold"}, {"measurement": "TLK2 Fold Change: IFNβ−/−", "setting": "IFN-β−/− macrophages", "result": 1.4, "unit": "fold"}, {"measurement": "TLR3 Fold Change: IFNβ−/−", "setting": "IFN-β−/− macrophages", "result": 1.3, "unit": "fold"}, {"measurement": "TMOD3 Fold Change: IFNβ−/−", "setting": "IFN-β−/− macrophages", "result": 2.3, "unit": "fold"}, {"measurement": "TNF Fold Change: IFNβ−/−", "setting": "IFN-β−/− macrophages", "result": 1.4, "unit": "fold"}, {"measurement": "TNFRSF11B Fold Change: IFNβ−/−", "setting": "IFN-β−/− macrophages", "result": 100.0, "unit": "fold"}, {"measurement": "TNFSF9 Fold Change: IFNβ−/−", "setting": "IFN-β−/− macrophages", "result": 1.7, "unit": "fold"}, {"measurement": "TOR1AIP1 Fold Change: IFNβ−/−", "setting": "IFN-β−/− macrophages", "result": 1.3, "unit": "fold"}, {"measurement": "TPST1 Fold Change: IFNβ−/−", "setting": "IFN-β−/− macrophages", "result": 6.1, "unit": "fold"}, {"measurement": "TREX1 Fold Change: IFNβ−/−", "setting": "IFN-β−/− macrophages", "result": 5.2, "unit": "fold"}, {"measurement": "TRIM21 Fold Change: IFNβ−/−", "setting": "IFN-β−/− macrophages", "result": 2.6, "unit": "fold"}, {"measurement": "TRIM25 Fold Change: IFNβ−/−", "setting": "IFN-β−/− macrophages", "result": 2.3, "unit": "fold"}, {"measurement": "TRIM34 Fold Change: IFNβ−/−", "setting": "IFN-β−/− macrophages", "result": 1.9, "unit": "fold"}, {"measurement": "USP18 Fold Change: IFNβ−/−", "setting": "IFN-β−/− macrophages", "result": 1.0, "unit": "fold"}, {"measurement": "VCAM1 Fold Change: IFNβ−/−", "setting": "IFN-β−/− macrophages", "result": 1.6, "unit": "fold"}, {"measurement": "ZBP1 Fold Change: IFNβ−/−", "setting": "IFN-β−/− macrophages", "result": 4.2, "unit": "fold"}, {"measurement": "ZNF313 Fold Change: IFNβ−/−", "setting": "IFN-β−/− macrophages", "result": 1.5, "unit": "fold"}, {"measurement": "RANTES secretion in RIG-I−/− MEFs", "setting": "MEFs", "result": "intact"}, {"measurement": "induced RANTES in TRIF−/− MEFs", "setting": "MEFs", "result": "unaffected by the absence of TRIF"}, {"measurement": "RANTES response in MAVS-deficient MEFs", "setting": "MEFs; MAVS+/+ and MAVS−/− MEFs", "result": "induces RANTES via a MAVS-independent pathway"}, {"measurement": "RANTES production in IRF-3−/− macrophages", "setting": "peritoneal macrophages", "result": "fail to produce RANTES"}, {"measurement": "secretion of TNF-α in IRF-3-deficient macrophages", "setting": "peritoneal macrophages", "result": "reduced to background levels"}]}]}
